These results are taken from publication PMC3140712 (2011).

Where a name gives a salt, the structure may show the parent alone.

This assay deals with P2Y1 receptor (Homo sapiens, UniProt P47900). In words: intracellular calcium mobilization. Type of assay: cell-based. (In general: Calcium assays in cells follow changes in intracellular calcium, usually with a dye or a luminescent sensor.)
Sequence of P2Y1 receptor (P47900 whole entry): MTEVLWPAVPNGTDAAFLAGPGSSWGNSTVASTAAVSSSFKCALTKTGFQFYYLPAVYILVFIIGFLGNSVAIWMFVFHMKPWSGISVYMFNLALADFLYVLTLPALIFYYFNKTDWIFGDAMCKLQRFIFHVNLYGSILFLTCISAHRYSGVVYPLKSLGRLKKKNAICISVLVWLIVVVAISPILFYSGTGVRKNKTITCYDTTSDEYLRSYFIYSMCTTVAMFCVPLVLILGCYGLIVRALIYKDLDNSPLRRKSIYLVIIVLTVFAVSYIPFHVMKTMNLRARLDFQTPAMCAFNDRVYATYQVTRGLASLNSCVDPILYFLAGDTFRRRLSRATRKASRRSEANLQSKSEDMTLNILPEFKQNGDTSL

Take `CSc1nc(N)c2ncn([C@H]3[C@H](O)[C@H](O)[C@]4(COP(=O)(O)OP(=O)(O)O)C[C@H]34)c2n1` [MRS2365, [[(1R,2R,3S,4R,5S)-4-[6-amino-2-(methylthio)-9H-purin-9-yl]-2,3-dihydroxybicyclo[3.1.0]hex-1-yl]methyl] diphosphoric acid mono ester trisodium salt]: the EC50 worked out at 5.28 ± 1.96 nM.

Usually EC50 stands for the concentration needed to bring the measured effect to its halfway point.
